Series [1] relates to TG-induced cardiomyocytes apoptosis. Briefly: Protection against TG-induced cardiomyocyte apoptosis (MTT). In kind it is cell-based, Wistar sucking mice. On the procedure: The isolation and culture of cardiomyocytes were performed by referring to the differential adhesion method (Kreider, A. Messing, H. Doan, S. U. Kim, R. P. Lisak and D. E. Pleasure, Enrichment of Schwann cell cultures from neonatal rat sciatic nerve by differential adhesion, Brain Res 2 (1981), pp. 433-444). Wistar sucking mice newborn within 24 h were used, sterilized at skin of ventrum with iodine tincture and ethanol, subjected to thoracotomy using scissors at subxiphoid median line with a deviation to left, heart was taken out after slant thoracotomy and placed in PBS precooled with ice; the heart was softly blown and beaten with 0.01M PBS to remove blood cells and other tissues, then cut into pieces with 0.5 mm^3 size, washed with 0.01 M PBS repeatedly for 2-3 times; the pieces were placed in conical flask, added with 4 ml of 0.125% pancretin, 1 ml of 0.1% collagenase II (final concentrations separately being 0.1% and 0.02%), shaken in 37° C. water bath for 10 min, the supernatant was discarded; then 4 ml of 0.125% pancretin and 1 ml of 0.1% collagenase II again, shaken in 37° C. water bath for digestion for 10 min, the supernatant was sucked and transferred to a centrifuge tube, and the supernatant was added with DMEM containing 10% FBS to terminate digestion; the step of shaking and digestion in water bath was repeated for 3-4 times, until the tissue pieces were completely digested; the collected cell suspension was centrifuged under 1000 rpm for 10 min, the supernatant was removed, then a culture medium was added for resuspension; the resuspended cells were inoculated in a cell culture flask, placed in CO2 incubator at 37° C. for incubation for 1.5 h, then the culture medium was sucked out, countered under microscope, then DMEM culture medium containing 10% FBS was used to adjust cell density, inoculated in an amount of 1×10^4 to a 96-well plate, placed in 5% CO2 incubator at 37° C. for 24 h, then half medium was replaced, a culture medium containing 0.1% Brdu was supplementally added; then the medium was replaced once per 48 h, and primary cardiomyocytes were obtained after 4 days of cultivation.
The isolated primary culture of cardiomyocytes was inoculated in an amount of 10^4 cells per well to a 96-well plate, and the volume of each well was 100 ul (marginal wells were filled with sterile PBS). […] The optical density (OD) value of each well was measured at wavelength of 550 nm by enzyme-linked immunoassay instrument, and each well was repeatedly measured for 5 times and the results were recorded. […]

A further series has as its system primary cardiomyocytes. Briefly: Measurement of cell inhibition rate (MTT) on normal primary cardiomyocytes. In kind it is cell-based, neonatal Wistar rats. On the procedure: The isolation and culture of cardiomyocytes were performed by referring to the differential adhesion method (Kreider, A. Messing, H. Doan, S. U. Kim, R. P. Lisak and D. E. Pleasure, Enrichment of Schwann cell cultures from neonatal rat sciatic nerve by differential adhesion, Brain Res 2 (1981), pp. 433-444). […]
The isolated primary culture of cardiomyocytes was inoculated in an amount of 10^4 cells per well to a 96-well plate, and the volume of each well was 100 ul (marginal wells were filled with sterile PBS). […] The optical density (OD) value of each well was measured at wavelength of 550 nm by enzyme-linked immunoassay instrument, and each well was repeatedly measured for 5 times and the results were recorded.

Take `O=C(/C=C/c1ccccc1)NC(NC(=O)Nc1cccc2cccnc12)C(Cl)(Cl)Cl` (stereo not shown) [Example 5, (2E)-3-phenyl-N-[1-(8-quinolylamino)formylamino-2,2,2-trichloroethyl]-2-acrylamide]: the “Cardiomyocyte survival rate (%)” value worked out at 79.3 ± 4.6% in series [1] (TG 0.4 uM + compound 0.3 μM, pretreatment 30 min before TG); 83.8 ± 8.3% in series [1] (TG 0.4 uM + compound 1 μM, pretreatment 30 min before TG); 84.2 ± 1.1% in series [1] (TG 0.4 uM + compound 3 μM, pretreatment 30 min before TG).
Usually inhibition stands for the percentage by which the read-out fell short of the control. A higher inhibition goes with strong suppression. As for `O=C(/C=C/c1ccccc1)NC(NC(=O)Nc1cccc2cccnc12)C(Cl)(Cl)Cl` (stereo not shown) [Example 1, (2E)-3-phenyl-N-[1-(8-quinolylamino)formylamino-2,2,2-trichloroethyl]-2-acrylamide], the inhibition at 30 µM in the series on primary cardiomyocytes (Cardiomyocyte, 30 μM compound, 48 h, MTT, cell survival rate = 1 − cell inhibition rate) was found to be 9.57 ± 1.62%. In addition, the inhibition at 300 µM in the series with primary cardiomyocytes (Cardiomyocyte, 300 μM compound, 48 h, MTT, cell survival rate = 1 − cell inhibition rate) is 7.78 ± 3.42%. Besides, the “effect on survival rate of normal cardiomyocytes” value in the series on primary cardiomyocytes (concentration within 300 μM) is given as “no effect”.
Regarding `C/C=C(/C)C(=O)O[C@H]1C(C)=C2[C@H]([C@@H]1OC(=O)CCCCCCC)[C@@](C)(OC(C)=O)C[C@H](OC(=O)CCC)[C@@]1(O)[C@H]2OC(=O)[C@@]1(C)O` [TG, thapsigargin, reference compound], the “Cardiomyocyte survival rate (%)” value in series [1] (TG alone 0.4 uM (apoptosis inducer)) was 59 ± 1.1%.

Source of the values: patent US9260384B2, “Urea compounds and use thereof for inhibiting apoptosis” (Chinese PLA General Hospital, priority 2010, dated 2016).
